Assay results from US20250228901A1, “COMPOSITION FOR PREVENTING, ALLEVIATING OR TREATING INFLAMMATORY SKIN DISEASES, COMPRISING CUTIBACTERIUM SP. STRAIN” (CJ Bioscience, Inc., priority 2021, published 2025).

Tests used:
[1] = tested on: Raw264.7 macrophages; experiment: Inflammation regulation by living cells co-cultured with Raw264.7 macrophages, IL-6 and IL-10 ELISA; assay type: cell-based; conditions: living cells co-cultured 1:1 with macrophages, 24 hours; compared to the B. fragilis strain
Description: The secured living cells and immunocytes (Raw264.7 macrophages) were co-cultured at the same ratio (1:1) of 5×10^4/well, respectively, in a 96 well plate for 24 hours, and then the inflammation regulation efficacy of the strains was confirmed. As a control group, a B. fragilis strain known as an inflammation alleviating strain was used. The secreted amounts of the inflammatory cytokine (IL-6) and anti-inflammatory cytokine (IL-10) secreted from the macrophages were measured by ELISA, and then values thereof were calculated at a ratio of IL-10/IL-6 and they were shown in FIG. 11.

[2] = tested on: mice in which rosacea is induced; experiment: Rosacea animal model induced by LL37 peptide; assay type: in vivo, BALB/c mice; conditions: for Dermal inflammation (histopathological evaluation score) / Epithelial hyperplasia (histopathological evaluation score): H&E staining of LL37-administered skin, culture products 150 μl i.p. x3, doxycycline 1 mg/kg x3, LL37 = rosacea induction only; for Total (histopathological evaluation score): sum of epithelial hyperplasia and dermal inflammation scores
Description: For the present animal effectiveness test, 32 5-week-old female BALB/c mice were purchased from Orient Bio company, and brought into a breeding room with a 12-hour artificial photoperiod, and acclimatized for one week, and then used in the experiment.
To make a rosacea animal model, hair on the mice's back area was removed using a depilator and hair removal cream. In 24 hours after depilation, to induce rosacea lesions, LL37 peptide (Peptron, Co., Ltd) of 320 μM was under intradermal injection using an insulin syringe by 50 μl. […] Doxycycline, which is one of conventional rosacea therapies, was peritoneally administered by 1 mg/kg once a day, for 3 days (total 3 times).
After 24 hours of the last strain culture product administration, the size (area) of erythema was measured using a caliper, and the animals were euthanized using CO2 gas, and then the lesion area was taken as a photograph and the degree of the erythema was observed by naked eyes and the tissue photographs and the area of the inflammation area were shown in FIG. 14a and FIG. 14b as graphs.

Compound	secreted amount of the anti-inflammatory cytokine (IL-10) [1]	secreted amount of the inflammatory cytokine (IL-6) [1]	Dermal inflammation (histopathological evaluation score) [2]	Epithelial hyperplasia (histopathological evaluation score) [2]	Total (histopathological evaluation score) [2]
Cutibacterium acnes CJRS-10654	promoted	reduced			
Cutibacterium acnes CJRS-10656	promoted	reduced			
LL37			2.5	2.75	5.25
Cutibacterium acnes CJRS-10653	promoted	reduced			
C[C@H]1c2cccc(O)c2C(=O)C2=C(O)[C@]3(O)C(=O)C(C(N)=O)=C(O)[C@@H](N(C)C)[C@@H]3[C@@H](O)[C@@H]21 [doxycycline]			2.4	1.2	3.6
Cutibacterium acnes CJRS-10652	promoted	reduced			
Cutibacterium acnes CJRS-10651	promoted	reduced			
Cutibacterium acnes CJRS-10655	promoted	reduced			
